Literature values in patent publication US20250179129A1, “ZINC FINGER PEPTIDES, PEPTIDE ARRAYS, AND METHODS OF USE THEREOF” (The Regents of the University of California, priority 2022, published 2025).

Tested on: single-strand RNA containing a GGU motif

## SDGDWICPDKKCGNVNFARRTSCNRCGREKTT (listed as Homo sapiens) [zinc finger in ZRANB2]
  affinity for single-strand RNA containing a GGU motif: micromolar
